Our source for the mortality values is US4309439A, “Substituted-acetic acid ester” (Sumitomo Chemical Company, Limited, priority 1975, dated 1982).

This series deals with green rice leafhoppers (Nephotettix cincticeps). Description: mortality of green rice leafhoppers on sprayed rice plants (Experimental Example 1). The series is classed as in vivo. The settings on record: 30% concentrate / wettable powder diluted 300 times; 10 ml/pot; after one day; 1440 min. As for the experimental part:
An emulsifiable concentrate is prepared by blending 30% of each of the present compounds (1) to (35), 50% of xylene and 20% of Sorpol SM-200 (a registered trade mark of Toho Kagaku Co.).
The emulsifiable concentrates thus formulated were diluted 300 times with water. […] Each test solution thus prepared was individually sprayed on the rice plants in a pot which had elasped 25 days after sowing, in a proportion of 10 ml/pot. Thereafter, each pot was covered with a cylindrical wire net and 15 green rice leafhoppers (Nephotettix cincticeps) were liberated in the pot.

For the molecule `CNC(=O)Oc1cccc2ccccc12` [Carbaryl, 1-naphthyl-N-methylcarbamate], the mortality entry is “more than 90%”.
